Source: PubChem BioAssay (NCI)
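Each compound was tested at five concentrations against cells in 96-well plates for 48 hours. The concentration for 50% growth inhibition is given as GI50. TGI marks complete inhibition of growth.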

Columns and labels:
Test in all cases: inhibition of tumour cell growth, NCI panel, 48 h
[1] = test system: CAKI-1 renal
[2] = test system: SNB-19 CNS
[3] = test system: 786-0 renal
[4] = test system: MCF7 breast
[5] = test system: TK-10 renal
[6] = test system: NCI-H522 lung
[7] = test system: UACC-62 melanoma
[8] = test system: SNB-75 CNS
[9] = test system: NCI/ADR-RES ovarian
[10] = test system: SN12C renal
[11] = test system: DU-145 prostate
[12] = test system: A498 renal
[13] = test system: SF-539 CNS
[14] = test system: HCC-2998 colon
[15] = test system: U251 CNS
[16] = test system: SF-295 CNS
[17] = test system: M14 melanoma
[18] = test system: NCI-H23 lung
[19] = test system: HCT-116 colon
[20] = test system: A549 NSCLC
[21] = test system: EKVX NSCLC
[22] = test system: SK-MEL-2 melanoma
[23] = test system: COLO 205 colon
[24] = test system: LOX IMVI melanoma
[25] = test system: ACHN renal
[26] = test system: RXF 393 renal
[27] = test system: HCT-15 colon
[28] = test system: HT29 colon
[29] = test system: UO-31 renal
[30] = test system: MALME-3M melanoma
[31] = test system: SK-MEL-5 melanoma
[32] = test system: CCRF-CEM leukemia
[33] = test system: OVCAR-3 ovarian
[34] = test system: IGROV1 ovarian
[35] = test system: KM12 colon
[36] = test system: BT-549 breast
[37] = test system: UACC-257 melanoma
[38] = test system: NCI-H460 lung
[39] = test system: HOP-62 NSCLC
[40] = test system: MDA-MB-231 breast
[41] = test system: OVCAR-4 ovarian
[42] = test system: MDA-MB-435
[43] = test system: SF-268 CNS
[44] = test system: NCI-H226 lung
[45] = test system: PC-3 prostate
[46] = test system: OVCAR-5 ovarian
[47] = test system: SK-OV-3 ovarian
[48] = test system: T-47D breast
[49] = test system: RPMI-8226 leukemia
[50] = test system: HOP-92 NSCLC
[51] = test system: OVCAR-8 ovarian

## CNC(=O)NCC1OC(n2cnc3c(NC(=O)Nc4ccccc4)ncnc32)C(O[Si](C)(C)C(C)(C)C)C1O[Si](C)(C)C(C)(C)C (configuration not stated)
[1]
  GI50: 2.7 µM
  TGI: 7.93 µM
[2]
  GI50: 4.57 µM
  TGI: > 100 µM
[3]
  GI50: 2.04 µM
  TGI: 3.71 µM
[4]
  GI50: 2.69 µM
  TGI: 19.4 µM
[5]
  GI50: 4.29 µM
  TGI: 72.6 µM
[6]
  GI50: 2.39 µM
  TGI: 7.14 µM
[7]
  GI50: 3.98 µM
  TGI: 23.6 µM
[8]
  GI50: 2.43 µM
  TGI: 34.1 µM
[9]
  GI50: 3.72 µM
  TGI: 20.7 µM
[10]
  GI50: 1.81 µM
  TGI: 3.38 µM
[11]
  GI50: 2.58 µM
  TGI: 5.71 µM
[12]
  GI50: 2.03 µM
  TGI: 4.96 µM
[13]
  GI50: 3.07 µM
  TGI: 13 µM
[14]
  GI50: 2.02 µM
  TGI: 3.75 µM
[15]
  GI50: 2.96 µM
  TGI: 10.8 µM
[16]
  GI50: 3.84 µM
  TGI: 31.8 µM
[17]
  GI50: 4.33 µM
  TGI: 18.5 µM
[18]
  GI50: 3.17 µM
  TGI: 9.07 µM
[19]
  GI50: 2.11 µM
  TGI: 4.31 µM
[20]
  GI50: 2.9 µM
  TGI: 12.8 µM
[21]
  GI50: 3.7 µM
  TGI: 30.6 µM
[22]
  GI50: 2.45 µM
  TGI: 5.54 µM
[23]
  GI50: 1.89 µM
  TGI: 3.36 µM
[24]
  GI50: 1.82 µM
  TGI: 3.36 µM
[25]
  GI50: 3.83 µM
  TGI: > 100 µM
[26]
  GI50: 2.14 µM
  TGI: 4.01 µM
[27]
  GI50: 3.62 µM
  TGI: > 100 µM
[28]
  GI50: 2.02 µM
  TGI: 3.74 µM
[29]
  GI50: 2.5 µM
  TGI: 9.56 µM
[30]
  GI50: 2.98 µM
  TGI: 9.84 µM
[31]
  GI50: 1.98 µM
  TGI: 4.75 µM
[32]
  GI50: 3.59 µM
  TGI: > 100 µM
[33]
  GI50: 2.6 µM
  TGI: 5.54 µM
[34]
  GI50: 2.74 µM
  TGI: 7.76 µM
[35]
  GI50: 2.13 µM
  TGI: 4.14 µM
[36]
  GI50: 2.94 µM
  TGI: 8.18 µM
[37]
  GI50: 3.78 µM
  TGI: 20.2 µM
[38]
  GI50: 1.72 µM
  TGI: 3.49 µM
[39]
  GI50: 4.98 µM
  TGI: 17.1 µM
[40]
  GI50: 2.61 µM
  TGI: 6.12 µM
[41]
  GI50: 3.44 µM
  TGI: 43.9 µM
[42]
  GI50: 3.41 µM
  TGI: 29.1 µM
[43]
  GI50: 3.58 µM
  TGI: 14 µM
[44]
  GI50: 3.1 µM
  TGI: 8.63 µM
[45]
  GI50: 2.69 µM
  TGI: > 100 µM
[46]
  GI50: 5.24 µM
  TGI: 25.2 µM
[47]
  GI50: 6.88 µM
  TGI: > 100 µM
[48]
  GI50: 2.87 µM
  TGI: 10.3 µM
[49]
  GI50: 3.27 µM
  TGI: > 100 µM
[50]
  GI50: 1.56 µM
  TGI: 5.16 µM
[51]
  GI50: 4.01 µM
  TGI: 40.1 µM
